Data: patent US20160338977A1, “METHODS AND KITS FOR TREATING DEPRESSION” (Janssen Pharmaceutica NV, priority 2015, published 2016)

What was measured:
[1] = test system: subjects with Treatment Resistant Depression (TRD); assay: Treatment emergent adverse events (TEAE) in the subjects of Example 1
Text: The treatment emergent adverse event (TEAE) side effects for the subjects of Example were obtained. See, Table 7.

[2] = test system: subjects with Treatment Resistant Depression (TRD); assay: Clinician Administered Dissociative States Scale (CADSS); format: in vivo, human; conditions: post dose; intranasal
Method: The Clinician Administered Dissociative States Scale (CADSS) was measured prior to the start of each dose, at 40 minutes and at 2 hours post dose. The CADSS is used to assess treatment emergent dissociative symptoms and perceptual changes and the total score ranges from 0 to 92 with a higher score representing a more severe condition. […] See, FIG. 4.

NMDA receptor = conditions: compared with the R-enantiomer (arketamine); cited from earlier work
[3] = test system: subjects with Treatment Resistant Depression (TRD); assay: MADRS total score, double-blind placebo-controlled intranasal induction study; format: in vivo, human; conditions: for Mean Differences (SE) from placebo, MADRS total score: Day 8, data from both Periods 1 and 2; for Estimated Differences from placebo, MADRS total score: best fit sigmoidal Emax model; for Least Square Mean Difference from Placebo, MADRS total score: change from baseline to Day 8, ANCOVA LOCF
Text: The subjects discussed in Examples 1 to 5 included adult men and women, 18 (or older if the minimum legal age of consent in the country in which the study is taking place is >18) to 64 years of age (inclusive), who meet diagnostic criteria for recurrent MDD or single-episode MDD, based upon clinical assessment.
This example was a 2-panel, doubly-randomized, double-blind, placebo-controlled, multicenter study. In both panels, each subject participated in a screening phase of up to 4 weeks and/or a double-blind treatment phase which includes two 1-week periods (Period 1 and Period 2).
Sixty-seven (67) subjects with Treatment Resistant Depression (TRD) were randomly assigned in a 3:1:1:1 ratio to 1 of the 4 treatment groups in Table 1.
All subjects self-administered the intranasal esketamine (28, 56, or 84 mg) or placebo on non-consecutive days. Each intranasal device contains 2 sprays and contain esketamine deliver 14 mg per spray, for a total of 28 mg per individual device (i.e., 2 sprays). […] Food was restricted for 8 hours before each administration of study drug and the drinking of fluids was restricted for at least 30 minutes before the first nasal spray.
In Period 2, 28 placebo subjects who were eligible for re-randomization at the end of Period 1 were randomly assigned to as noted in Table 1 in a 1:1:1:1 ratio. Subjects eligible for re-randomization had to have a QIDS-SR16 total score >11 at the end of Period 1. Central randomization was implemented in this study. Both randomizations were balanced using randomly permuted blocks and were stratified by study center. The randomization for Period 2 was also stratified by QIDS-SR16 score at the end of Period 1 (moderate=11-16; severe >16) Subjects who were randomly assigned to esketamine in Period 1 continued to receive esketamine in Period 2, while Period 1 placebo subjects with a QIDS-SR16 total score <11 continued with placebo in Period 2.
The Period 1 ITT analysis set consisted of all randomized subjects who received at least 1 dose of study medication during Period 1 and had both the baseline and at least one post baseline value for the primary endpoint measure, MADRS total score, within Period 1. The Period 2 ITT analysis set consisted of all Period 1 placebo subjects who were eligible for re-randomization (QIDS-SR16≧11 at end of Period 1), who actually got re-randomized into Period 2 and received at least 1 dose of study medication during Period 2, and had both the baseline and at least one post baseline MADRS total score within Period 2.
The MADRS consisted of 10 items that covered all of the core depressive symptoms (apparent sadness, reported sadness, inner tension, sleep, appetite, concentration, lassitude, interest level, pessimistic thoughts, and suicidal thoughts). Each item was scored from 0 (item is not present or is normal) to 6 (severe or continuous presence of the symptom). A total score (0 to 60) was calculated by summing the scores of all 10 items. A higher score represented a more severe condition. Sustained response (onset of clinical response) was defined as at least 50% improvement from baseline in the MADRS total score with an onset by Day 2 that was maintained to study Day 15. The primary efficacy endpoint was the change in MADRS total score from baseline to Day 8 in each period, with the analysis based on data combined across both periods. The primary efficacy analysis was performed on the intent-to-treat (ITT) analysis sets that were defined for each period, which included all randomized subjects who received at least 1 dose of study medication during that period and have both the baseline and at least one post baseline MADRS total score within that period. Significance was based on a one-sided alpha level of 0.05.
A separate ANCOVA model was performed on last observation carried forward (LOCF) data for each period. Changes from baseline in Period 1 were modeled with treatment as a factor and Period 1 baseline value as a covariate. […]

CN[C@]1(c2ccccc2Cl)CCCCC1=O.Cl [Esketamine, (S)-2-(2-chlorophenyl)-2-(methylamino)cyclohexanone hydrochloride]
Patients Experiencing on TEAE ([1]; Period 1, 28 mg intranasal): 73 | Patients Experiencing on TEAE ([1]; Period 1, 56 mg intranasal): 82 | Patients Experiencing on TEAE ([1]; Period 1, 84 mg intranasal): 83 | Patients Experiencing on TEAE ([1]; Period 2, 28 mg intranasal): 38 | Patients Experiencing on TEAE ([1]; Period 2, 56 mg intranasal): 78 | Patients Experiencing on TEAE ([1]; Period 2, 84 mg intranasal): 100 | subjects who experienced at least one TEAE ([1]; overall, esketamine in either Period 1 or Period 2): about 79% | time of peak of dissociative and perceptual change symptoms (CADSS) [2]: ≤ 40 min | time to resolution of dissociative and perceptual change symptoms (CADSS) [2]: ≤ 2 h | potency or affinity for the NMDA receptor (NMDA receptor): higher potency or affinity | statistical comparison with placebo, dose response model, MADRS total score ([3]; 14 mg (model estimate, dose not studied), 90% CI included 0): not statistically different from placebo | Mean Differences (SE) from placebo, MADRS total score ([3]; 28 mg): −4.2 (2.09) | Estimated Differences from placebo, MADRS total score ([3]; 28 mg): −4.22 | statistical comparison with placebo, dose response model, MADRS total score ([3]; 28 mg, sigmoidal Emax model, 90% CI): statistically superior to placebo | Mean Differences (SE) from placebo, MADRS total score ([3]; 56 mg): −6.3 (2.07) | Estimated Differences from placebo, MADRS total score ([3]; 56 mg): −7.04 | statistical comparison with placebo, dose response model, MADRS total score ([3]; 56 mg, sigmoidal Emax model, 90% CI): statistically superior to placebo | Mean Differences (SE) from placebo, MADRS total score ([3]; 84 mg): −9.0 (2.13) | Estimated Differences from placebo, MADRS total score ([3]; 84 mg): −8.45 | statistical comparison with placebo, dose response model, MADRS total score ([3]; 84 mg, sigmoidal Emax model, 90% CI): statistically superior to placebo | Least Square Mean Difference from Placebo, MADRS total score ([3]; Period 1, 28 mg intranasal): −5.0 | Least Square Mean Difference from Placebo, MADRS total score ([3]; Period 1, 56 mg intranasal): −7.6 | Least Square Mean Difference from Placebo, MADRS total score ([3]; Period 1, 84 mg intranasal): −10.5 | Least Square Mean Difference from Placebo, MADRS total score ([3]; Period 2, 28 mg intranasal): −3.1 | Least Square Mean Difference from Placebo, MADRS total score ([3]; Period 2, 56 mg intranasal): −4.4 | Least Square Mean Difference from Placebo, MADRS total score ([3]; Period 2, 84 mg intranasal): −6.9 | statistical comparison with placebo, MADRS total score ([3]; all three groups (28, 56, 84 mg), Period 1 and Period 2 combined, weighted combination test, one-sided 0.05): statistically superior to placebo | Estimated Differences from placebo, MADRS total score ([3]; dose cell blank (14 mg per text, dose not studied)): −1.98
